Patent publication US12312332B2 (Merck Sharp & Dohme LLC., priority 2019, dated 2025)
pEC50: −log10 of the molar value.

Target: T1, human OX2R (Homo sapiens, UniProt O43614)
T1 construct: expressed in transfected cells; host or cells: Chinese hamster ovary (CHO) cells, kept under G418 selection
T1 sequence (O43614 1-444): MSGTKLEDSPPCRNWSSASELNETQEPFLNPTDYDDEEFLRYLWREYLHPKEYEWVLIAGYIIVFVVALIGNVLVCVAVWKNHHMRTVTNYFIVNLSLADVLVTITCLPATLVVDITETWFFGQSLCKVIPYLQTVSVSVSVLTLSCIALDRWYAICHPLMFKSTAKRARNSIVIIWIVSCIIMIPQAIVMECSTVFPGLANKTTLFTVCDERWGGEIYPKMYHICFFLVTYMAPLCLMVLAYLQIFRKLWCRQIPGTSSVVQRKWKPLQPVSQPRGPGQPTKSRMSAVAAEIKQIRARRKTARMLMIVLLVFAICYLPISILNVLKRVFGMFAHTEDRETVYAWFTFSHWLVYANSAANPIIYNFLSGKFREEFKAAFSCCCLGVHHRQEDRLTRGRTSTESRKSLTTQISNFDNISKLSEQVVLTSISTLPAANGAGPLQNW
Experiment: IPOne (IP-One) orexin receptor agonist assay in CHO cells expressing human OX2R
Assay type: cell-based
Conditions: for pEC50: CHO cells expressing human OX2R, IP-One detection, 2 hours incubation, four parameter logistic fit, read-out: OX2R Potency, EC50; for % max agonist effect (Emax): human OX2R, percentage of sample raw value/mean max effect (reference compound at 1 uM with 100% activity)
Text: The utility of the compounds in accordance with the present invention as orexin receptor OX1R and/or OX2R agonists may be readily determined without undue experimentation by methodology well known in the art. Both the OX1R and/or OX2R G-coupled protein receptors (GPCRs) couple through the Gaq signaling pathway, which ultimately promotes calcium mobilization via inositol triphosphate (IP3) production. […] The utility of the compounds in accordance with the present invention as orexin receptor OX1R and/or OX2R agonists may be determined utilizing this assay.
In a typical experiment, the OX1 and OX2 receptor agonist activity is determined in accordance with the following general experimental method. Chinese hamster ovary (CHO) cells expressing human OX1R and/or the human OX2R were grown in Iscove's modified DMEM containing glutaMAX™, 1% G418, 100 U/mL penicillin, 100 μg/mL streptomycin and 10% heat-inactivated qualified fetal bovine serum (FBS). […] During this incubation, IP-one detection reagents were prepared (38:1:1 lysis buffer:D2:AB-cryptate reagents).
For each compound, data were fit to a four parameter logistic fit (ActivityBase software) and the EC50 was reported as the inflection point of the resulting curve. Percent effect for each test compound was determined as the percentage of sample raw value/mean max effect, where the mean max effect was derived from the mean raw value of 32 control wells per assay plate (using Orexin A (cat #003-30) at 1 μM for human OX1R and a reference compound at 1 uM with 100% activity previously established by comparison to Orexin A for human OX2R). The intrinsic orexin receptor agonist activity of a compound which may be used in the present invention may be determined by these assays.

Structure (SMILES) | pEC50 | % max agonist effect (Emax) [%]
CS(=O)(=O)N[C@H]1CCN(c2ccnc(CO)c2)[C@H]1CO[C@H]1CC[C@@H](c2ccccc2)CC1 [Example 43, N-((2R,3S)-1-(2-(hydroxymethyl)pyridin-4-yl)-2-((((CIS)-4-phenylcyclohexyl)oxy)methyl)pyrrolidin-3-yl)methanesulfonamide] | 5.45 | 90.4
CC(C)(O)c1cc(N2CC[C@H](NS(C)(=O)=O)[C@@H]2CO[C@H]2CC[C@@H](c3ccccc3)CC2)ccn1 [Example 44, N-((2R,3S)-1-(2-(2-hydroxypropan-2-yl)pyridin-4-yl)-2-((((CIS)-4-phenylcyclohexyl)oxy)methyl)pyrrolidin-3-yl)methanesulfonamide] | < 5.00 | 22.0
Cc1cc(N2CC[C@H](NS(C)(=O)=O)[C@@H]2CO[C@H]2CC[C@@H](c3ccccc3)CC2)cnc1CO [Example 45, N-((2R,3S)-1-(6-(hydroxymethyl)-5-methylpyridin-3-yl)-2-((((CIS)-4-phenylcyclohexyl)oxy)methyl)pyrrolidin-3-yl)methanesulfonamide] | 5.85 | 97.2
CS(=O)(=O)N[C@H]1CCN(c2cc(C(F)(F)F)ncn2)[C@H]1CO[C@H]1CC[C@@H](c2ccccc2)CC1 [Example 46, N-((2R,3S)-2-((((CIS)-4-phenylcyclohexyl)oxy)methyl)-1-(6-(trifluoromethyl)pyrimidin-4-yl)pyrrolidin-3-yl)methanesulfonamide] | < 5.00 | 43.4
CS(=O)(=O)N[C@H]1CCN(c2cncc(O)c2)[C@H]1CO[C@H]1CC[C@@H](c2ccccc2)CC1 [Example 47, N-((2R,3S)-1-(5-hydroxypyridin-3-yl)-2-((((CIS)-4-phenylcyclohexyl)oxy)methyl)pyrrolidin-3-yl)methanesulfonamide] | 8.05 | 101.4
Cc1nccc(N2CC[C@H](NS(C)(=O)=O)[C@@H]2CO[C@H]2CC[C@@H](c3ccccc3)CC2)n1 [Example 48, N-((2R,3S)-1-(2-methylpyrimidin-4-yl)-2-((((CIS)-4-phenylcyclohexyl)oxy)methyl)pyrrolidin-3-yl)methanesulfonamide] | 5.17 | 77.3
CS(=O)(=O)N[C@H]1CCN(c2cncc(CO)c2)[C@H]1CO[C@H]1CC[C@@H](c2ccccc2)CC1 [Example 49, N-((2R,3S)-1-(5-(hydroxymethyl)pyridin-3-yl)-2-((((CIS)-4-phenylcyclohexyl)oxy)methyl)pyrrolidin-3-yl)methanesulfonamide] | 6.66 | 99.6
CS(=O)(=O)N[C@H]1CCN(c2cncc(C(F)(F)F)c2)[C@H]1CO[C@H]1CC[C@@H](c2ccccc2)CC1 [Example 50, N-((2R,3S)-2-((((CIS)-4-phenylcyclohexyl)oxy)methyl)-1-(5-(trifluoromethyl)pyridin-3-yl)pyrrolidin-3-yl)methanesulfonamide] | 6.02 | 95.1
COc1ccncc1N1CC[C@H](NS(C)(=O)=O)[C@@H]1CO[C@H]1CC[C@@H](c2ccccc2)CC1 [Example 51, N-((2R,3S)-1-(4-methoxypyridin-3-yl)-2-((((CIS)-4-phenylcyclohexyl)oxy)methyl)pyrrolidin-3-yl)methanesulfonamide] | 7.85 | 100.3
CS(=O)(=O)N[C@H]1CCN(c2cncc(OC(F)F)c2)[C@H]1CO[C@H]1CC[C@@H](c2ccccc2)CC1 [Example 52, N-((2R,3S)-1-(5-(difluoromethoxy)pyridin-3-yl)-2-((((CIS)-4-phenylcyclohexyl)oxy)methyl)pyrrolidin-3-yl)methanesulfonamide] | 6.19 | 99.2
COc1ccc(N2CC[C@H](NS(C)(=O)=O)[C@@H]2CO[C@H]2CC[C@@H](c3ccccc3)CC2)cn1 [Example 53, N-((2R,3S)-1-(6-methoxypyridin-3-yl)-2-((((CIS)-4-phenylcyclohexyl)oxy)methyl)pyrrolidin-3-yl)methanesulfonamide] | 6.65 | 100.6
COc1cc(N2CC[C@H](NS(C)(=O)=O)[C@@H]2CO[C@H]2CC[C@@H](c3ccccc3)CC2)cnc1OC [Example 54, N-((2R,3S)-1-(5,6-dimethoxypyridin-3-yl)-2-((((CIS)-4-phenylcyclohexyl)oxy)methyl)pyrrolidin-3-yl)methanesulfonamide] | 6.11 | 98.9
COc1ncc(N2CC[C@H](NS(C)(=O)=O)[C@@H]2CO[C@H]2CC[C@@H](c3ccccc3)CC2)cc1C [Example 55, N-((2R,3S)-1-(6-methoxy-5-methylpyridin-3-yl)-2-((((CIS)-4-phenylcyclohexyl)oxy)methyl)pyrrolidin-3-yl)methanesulfonamide] | 5.62 | 91.4
CS(=O)(=O)N[C@H]1CCN(c2ccncc2CO)[C@H]1CO[C@H]1CC[C@@H](c2ccccc2)CC1 [Example 56, N-((2R,3S)-1-(3-(hydroxymethyl)pyridin-4-yl)-2-((((CIS)-4-phenylcyclohexyl)oxy)methyl)pyrrolidin-3-yl)methanesulfonamide] | < 5.00 | 61.6
CS(=O)(=O)N[C@H]1CCN(c2ccncc2)[C@H]1CO[C@H]1CC[C@@H](c2ccccc2)CC1 [Example 57, N-((2R,3S)-2-((((CIS)-4-phenylcyclohexyl)oxy)methyl)-1-(pyridin-4-yl)pyrrolidin-3-yl)methanesulfonamide] | 5.39 | 87.6
CS(=O)(=O)N[C@H]1CCN(c2ccc(OC(F)F)nc2)[C@H]1CO[C@H]1CC[C@@H](c2ccccc2)CC1 [Example 58, N-((2R,3S)-1-(6-(difluoromethoxy)pyridin-3-yl)-2-((((CIS)-4-phenylcyclohexyl)oxy)methyl)pyrrolidin-3-yl)methanesulfonamide] | 6.79 | 100.9
COc1cc(N2CC[C@H](NS(C)(=O)=O)[C@@H]2CO[C@H]2CC[C@@H](c3ccccc3)CC2)ccn1 [Example 59, N-((2R,3S)-1-(2-methoxypyridin-4-yl)-2-((((CIS)-4-phenylcyclohexyl)oxy)methyl)pyrrolidin-3-yl)methanesulfonamide] | 5.54 | 87.2
Cc1ncc(N2CC[C@H](NS(C)(=O)=O)[C@@H]2CO[C@H]2CC[C@@H](c3ccccc3)CC2)cn1 [Example 60, N-((2R,3S)-1-(2-methylpyrimidin-5-yl)-2-((((CIS)-4-phenylcyclohexyl)oxy)methyl)pyrrolidin-3-yl)methanesulfonamide] | 6.60 | 100.0
CC(C)(O)c1ccc(N2CC[C@H](NS(C)(=O)=O)[C@@H]2CO[C@H]2CC[C@@H](c3ccccc3)CC2)cn1 [Example 61, N-((2R,3S)-1-(6-(2-hydroxypropan-2-yl)pyridin-3-yl)-2-((((CIS)-4-phenylcyclohexyl)oxy)methyl)pyrrolidin-3-yl)methanesulfonamide] | 7.42 | 101.3
Cc1cncc(N2CC[C@H](NS(C)(=O)=O)[C@@H]2CO[C@H]2CC[C@@H](c3ccccc3)CC2)n1 [Example 62, N-((2R,3S)-1-(6-methylpyrazin-2-yl)-2-((((CIS)-4-phenylcyclohexyl)oxy)methyl)pyrrolidin-3-yl)methanesulfonamide] | 6.48 | 100.6
CS(=O)(=O)N[C@H]1CCN(c2ncc(F)cc2F)[C@H]1CO[C@H]1CC[C@@H](c2ccccc2)CC1 [Example 63, N-((2R,3S)-1-(3,5-difluoropyridin-2-yl)-2-((((CIS)-4-phenylcyclohexyl)oxy)methyl)pyrrolidin-3-yl)methanesulfonamide] | 6.48 | 101.1
COc1cncc(N2CC[C@H](NS(C)(=O)=O)[C@@H]2CO[C@H]2CC[C@@H](c3ccccc3)CC2)c1 [Example 64, N-((2R,3S)-1-(5-methoxypyridin-3-yl)-2-((((CIS)-4-phenylcyclohexyl)oxy)methyl)pyrrolidin-3-yl)methanesulfonamide] | 7.33 | 101.1
